Source: ChEMBL document CHEMBL2163195, “Development of potent carbonic anhydrase inhibitors incorporating both sulfonamide and sulfamide groups” (J Med Chem, 2012)

Biological target: Carbonic anhydrase 9 (Homo sapiens, UniProt Q16790)

SMILES | Ki [nM]
NS(=O)(=O)Nc1ccc(S(=O)(=O)Nc2ccc(S(N)(=O)=O)cc2)cc1 | 27
CC(=O)Nc1ccc(S(=O)(=O)Nc2ccc(C(=O)NCCc3ccc(S(N)(=O)=O)cc3)cc2)cc1 | 4.5
NS(=O)(=O)Nc1ccc(S(=O)(=O)Nc2ccc(C(=O)O)cc2)cc1 | 57
NS(=O)(=O)Nc1ccc(S(N)(=O)=O)cc1 | 64
NS(=O)(=O)NCc1ccc(S(N)(=O)=O)cc1 | 65

Results, then the compound that gave them:

Ki [nM] | SMILES
0.4 | NS(=O)(=O)Nc1ccc(S(=O)(=O)Nc2ccc(C(=O)NCCc3ccc(S(N)(=O)=O)cc3)cc2)cc1
611 | NS(=O)(=O)NCCc1ccc(S(N)(=O)=O)cc1
65 | NS(=O)(=O)Nc1ccc(S(=O)(=O)NCCc2ccc(S(N)(=O)=O)cc2)cc1
35 | NS(=O)(=O)Nc1ccc(S(=O)(=O)NCc2ccc(S(N)(=O)=O)cc2)cc1
